# Measurements from patent US11591365B2, “BCL9 peptides and variants thereof” (WntRx Pharmaceuticals Inc., priority 2017, dated 2023).
# Where a SMILES comes first, the peptide text is derived from it. Bridges are numbered along the chain shown (N, C = ends). [ ]: non-standard residue; d: D form. 2Nal = N[C@@H](Cc1ccc2ccccc2c1)C(=O)O; Cba = N[C@@H](CC1CCC1)C(=O)O; S5 = C=CCCC[C@](C)(N)C(=O)O
# System: Colo320DM
# Experiment: Colo320DM cell viability
# Format: cell-based, human
# Excerpt: In some embodiments, a polypeptide described herein inhibits binding of BLC9 to β-catenin when assessed in a cell-viability assay. In some embodiments, the cell-viability assay is a CellTiterGlo luminescent assay, wherein the viability of cells is quantitatively measured. Various cell lines, transformed cell lines or primary cells derived from a healthy subject or subject suffering from a disease can be used in this assay.
row,IC50,Compound
1,3.07 µM,"CC[C@H](C)[C@@H]1NC(=O)[C@@](C)(NC(=O)[C@H](CCCNC(=N)N)NC(=O)[C@H](CC(C)C)NC(=O)[C@@H](NC(=O)[C@H](CCC(N)=O)N(C)C(=O)[C@H](CC(C)C)NC(C)=O)[C@@H](C)O)CCCC=CCCC[C@@](C)(C(=O)N[C@@H](CC2CCC2)C(=O)N[C@@H](Cc2ccc3ccccc3c2)C(=O)NCCC(=O)NCCC(N)=O)NC(=O)[C@H](CCCNC(=N)N)NC(=O)[C@H](CCC(N)=O)NC1=O (single isomer, unassigned) [SEQ ID NO: 111, L(N-methylQ)TLRXIQRX(CBA)(2-Nal)(β-Ala)(β-Ala)]"
2,3.32 µM,"CC[C@H](C)[C@@H]1NC(=O)[C@@](C)(NC(=O)[C@H](CCCNC(=N)N)NC(=O)[C@H](CC(C)C)NC(=O)[C@@H](NC(=O)[C@H](CCC(N)=O)NC(=O)[C@H](CC(C)C)NC(=O)[C@H](CO)NC(=O)[C@H](CCCNC(=N)N)NC(=O)[C@H](CCC(N)=O)NC(=O)[C@H](CCCNC(=N)N)N(C)C(=O)[C@H](Cc2c[nH]cn2)NC(C)=O)[C@@H](C)O)CCCC=CCCC[C@@](C)(C(=O)N[C@@H](CC2CCC2)C(=O)N[C@@H](Cc2ccc3ccccc3c2)C(N)=O)NC(=O)[C@H](CCCNC(=N)N)NC(=O)[C@H](CCC(N)=O)NC1=O (single isomer, unassigned) [SEQ ID NO: 158, H(R-Me)QRSLQTLRXIQRX(CBA)(2-Nal)]"
3,4.17 µM,"CC[C@H](C)[C@@H]1NC(=O)[C@@](C)(NC(=O)[C@H](CCCNC(=N)N)NC(=O)[C@H](CC(C)C)NC(=O)[C@@H](NC(=O)[C@H](CCC(N)=O)NC(=O)[C@H](CC(C)C)NC(=O)[C@H](CO)NC(=O)[C@H](CCCNC(=N)N)NC(=O)[C@H](CCC(N)=O)NC(=O)[C@H](CCCNC(=N)N)N(C)C(=O)[C@H](Cc2c[nH]cn2)NC(C)=O)[C@@H](C)O)CCCC=CCCC[C@@](C)(C(=O)N[C@@H](CC2CCC2)C(=O)N[C@@H](Cc2ccc3ccccc3c2)C(N)=O)NC(=O)[C@H](CCCNC(=N)N)NC(=O)[C@H](CCC(N)=O)NC1=O (single isomer, unassigned) [SEQ ID NO: 166, H(N-methylR)QRSLQTLRXIQRX(CBA)(2-Nal)]"
4,4.68 µM,"CC[C@H](C)[C@@H]1NC(=O)[C@@](C)(NC(=O)[C@H](CCCNC(=N)N)NC(=O)[C@H](CC(C)C)NC(=O)[C@@H](NC(=O)[C@H](CCC(N)=O)NC(=O)[C@H](CC(C)C)NC(=O)[C@H](CO)NC(=O)[C@H](CCCNC(=N)N)NC(=O)[C@H](CCC(N)=O)NC(=O)[C@H](CCCNC(=N)N)NC(=O)[C@H](Cc2c[nH]cn2)NC(C)=O)[C@@H](C)O)CCCC=CCCC[C@@](C)(C(=O)N[C@@H](Cc2ccc(Cl)cc2)C(=O)N[C@@H](Cc2ccc3ccccc3c2)C(N)=O)NC(=O)[C@H](CCCNC(=N)N)NC(=O)[C@H](CCC(N)=O)NC1=O (single isomer, unassigned) [SEQ ID NO: 179, HRQRSLQTLRXIQRX(Phe-4-Cl)(2-Nal)]"
5,6.8 µM,"CC[C@H](C)[C@@H]1NC(=O)[C@@](C)(NC(=O)[C@H](CCCNC(=N)N)NC(=O)[C@H](CC(C)C)NC(=O)[C@@H](NC(=O)[C@H](CCC(N)=O)NC(=O)[C@H](CC(C)C)NC(=O)[C@H](CO)NC(=O)[C@H](CCCNC(=N)N)NC(=O)[C@H](CCC(=O)O)NC(=O)[C@H](CCCNC(=N)N)NC(C)=O)[C@@H](C)O)CCCC=CCCC[C@@](C)(C(=O)N[C@@H](CC(C)C)C(=O)N[C@@H](Cc2ccc3ccccc3c2)C(N)=O)NC(=O)[C@H](CCCNC(=N)N)NC(=O)[C@H](CCC(N)=O)NC1=O [SEQ ID NO: 5, RERSLQTLRXIQRXL(2-Nal)] (Ac-RERSLQTLR[S5]IQR[S5]L[2Nal]-NH2; staple 10-14)"
6,5.3 µM,"CC[C@H](C)[C@@H]1NC(=O)[C@@](C)(NC(=O)[C@H](CCCNC(=N)N)NC(=O)[C@H](CC(C)C)NC(=O)[C@@H](NC(=O)[C@H](CCC(N)=O)NC(=O)[C@H](CC(C)C)NC(=O)[C@H](CO)NC(=O)[C@H](CCCNC(=N)N)NC(=O)[C@H](CCC(=O)O)NC(=O)[C@H](CCCNC(=N)N)NC(=O)[C@H](Cc2c[nH]cn2)NC(C)=O)[C@@H](C)O)CCCC=CCCC[C@@](C)(C(=O)N[C@@H](CC(C)C)C(=O)N[C@@H](Cc2ccc3ccccc3c2)C(N)=O)NC(=O)[C@H](CCCNC(=N)N)NC(=O)[C@H](CCC(N)=O)NC1=O [SEQ ID NO: 6, HRERSLQTLRXIQRXL(2-Nal)] (Ac-HRERSLQTLR[S5]IQR[S5]L[2Nal]-NH2; staple 11-15)"
7,9.1 µM,"CC[C@H](C)[C@@H]1NC(=O)[C@@](C)(NC(=O)[C@H](CCCNC(=N)N)NC(=O)[C@H](CC(C)C)NC(=O)[C@@H](NC(=O)[C@H](CCC(N)=O)NC(=O)[C@H](CC(C)C)NC(=O)[C@H](CO)NC(=O)[C@H](CCCNC(=N)N)NC(=O)[C@H](CCC(=O)O)NC(=O)[C@H](CCCNC(=N)N)NC(=O)[C@H](Cc2c[nH]cn2)NC(=O)[C@H](CCC(=O)O)NC(C)=O)[C@@H](C)O)CCCC=CCCC[C@@](C)(C(=O)N[C@@H](CC(C)C)C(=O)N[C@@H](Cc2ccc3ccccc3c2)C(N)=O)NC(=O)[C@H](CCCNC(=N)N)NC(=O)[C@H](CCC(N)=O)NC1=O [SEQ ID NO: 7, EHRERSLQTLRXIQRXL(2-Nal)] (Ac-EHRERSLQTLR[S5]IQR[S5]L[2Nal]-NH2; staple 12-16)"
8,6.3 µM,"CC[C@H](C)[C@@H]1NC(=O)[C@@](C)(NC(=O)[C@H](CCCNC(=N)N)NC(=O)[C@H](CC(C)C)NC(=O)[C@@H](NC(=O)[C@H](CCC(N)=O)NC(=O)[C@H](CC(C)C)NC(=O)[C@H](CO)NC(=O)[C@H](CCCNC(=N)N)NC(=O)[C@H](CCC(=O)O)NC(=O)[C@H](CCCNC(=N)N)NC(=O)[C@H](Cc2c[nH]cn2)NC(=O)[C@H](CCC(=O)O)NC(=O)[C@H](CC(C)C)NC(=O)[C@H](CCC(N)=O)NC(C)=O)[C@@H](C)O)CCCC=CCCC[C@@](C)(C(=O)N[C@@H](CC(C)C)C(=O)N[C@@H](Cc2ccc3ccccc3c2)C(N)=O)NC(=O)[C@H](CCCNC(=N)N)NC(=O)[C@H](CCC(N)=O)NC1=O [SEQ ID NO: 8, QLEHRERSLQTLRXIQRXL(2-Nal)] (Ac-QLEHRERSLQTLR[S5]IQR[S5]L[2Nal]-NH2; staple 14-18)"
9,1.9 µM,"CC[C@H](C)[C@@H]1NC(=O)[C@@](C)(NC(=O)[C@H](CCCNC(=N)N)NC(=O)[C@H](CC(C)C)NC(=O)[C@@H](NC(=O)[C@H](CCC(N)=O)NC(=O)[C@H](CC(C)C)NC(=O)[C@H](CO)NC(=O)[C@H](CCCNC(=N)N)NC(=O)[C@H](CCC(=O)O)NC(=O)[C@H](CCCNC(=N)N)NC(=O)[C@H](Cc2c[nH]cn2)NC(=O)[C@H](CCC(=O)O)NC(C)=O)[C@@H](C)O)CCCC=CCCC[C@@](C)(C(=O)N[C@@H](CC2CCC2)C(=O)N[C@@H](Cc2ccc3ccccc3c2)C(N)=O)NC(=O)[C@H](CCCNC(=N)N)NC(=O)[C@H](CCC(N)=O)NC1=O [SEQ ID NO: 9, EHRERSLQTLRXIQRX(CBA)(2-Nal)] (Ac-EHRERSLQTLR[S5]IQR[S5][Cba][2Nal]-NH2; staple 12-16)"
10,1.51 µM,"CC[C@H](C)[C@@H]1NC(=O)[C@@](C)(NC(=O)[C@H](CCCNC(=N)N)NC(=O)[C@H](CC(C)C)NC(=O)[C@@H](NC(=O)[C@H](CCC(N)=O)NC(=O)[C@H](CC(C)C)NC(=O)[C@H](CO)NC(=O)[C@H](CCCNC(=N)N)NC(=O)[C@H](CCC(=O)O)NC(=O)[C@H](CCC(N)=O)NC(=O)[C@H](Cc2c[nH]cn2)NC(C)=O)[C@@H](C)O)CCCC=CCCC[C@@](C)(C(=O)N[C@@H](CC(C)C)C(=O)N[C@@H](Cc2ccc3ccccc3c2)C(N)=O)NC(=O)[C@H](CCCNC(=N)N)NC(=O)[C@H](CCC(N)=O)NC1=O [SEQ ID NO: 11, HQERSLQTLRXIQRXL(2-Nal)] (Ac-HQERSLQTLR[S5]IQR[S5]L[2Nal]-NH2; staple 11-15)"
11,1.61 µM,"CC[C@H](C)[C@@H]1NC(=O)[C@@](C)(NC(=O)[C@H](CCCNC(=N)N)NC(=O)[C@H](CC(C)C)NC(=O)[C@@H](NC(=O)[C@H](CCC(N)=O)NC(=O)[C@H](CC(C)C)NC(=O)[C@H](CO)NC(=O)[C@H](CCCNC(=N)N)NC(=O)[C@H](CCC(=O)O)NC(=O)[C@H](CCCNC(=N)N)NC(C)=O)[C@@H](C)O)CCCC=CCCC[C@@](C)(C(=O)N[C@@H](CC2CCC2)C(=O)N[C@@H](Cc2ccc3ccccc3c2)C(N)=O)NC(=O)[C@H](CCCNC(=N)N)NC(=O)[C@H](CCC(N)=O)NC1=O [SEQ ID NO: 13, RERSLQTLRXIQRX(CBA)(2-Nal)] (Ac-RERSLQTLR[S5]IQR[S5][Cba][2Nal]-NH2; staple 10-14)"
12,1.49 µM,"CC[C@H](C)[C@@H]1NC(=O)[C@@](C)(NC(=O)[C@H](CCCNC(=N)N)NC(=O)[C@H](CC(C)C)NC(=O)[C@@H](NC(=O)[C@H](CCC(N)=O)NC(=O)[C@H](CC(C)C)NC(=O)[C@H](CO)NC(=O)[C@H](CCCNC(=N)N)NC(=O)[C@H](CCC(=O)O)NC(=O)[C@H](CCCNC(=N)N)NC(=O)[C@H](Cc2c[nH]cn2)NC(C)=O)[C@@H](C)O)CCCC=CCCC[C@@](C)(C(=O)N[C@@H](CC2CCC2)C(=O)N[C@@H](Cc2ccc3ccccc3c2)C(N)=O)NC(=O)[C@H](CCCNC(=N)N)NC(=O)[C@H](CCC(N)=O)NC1=O [SEQ ID NO: 14, HRERSLQTLRXIQRX(CBA)(2-Nal)] (Ac-HRERSLQTLR[S5]IQR[S5][Cba][2Nal]-NH2; staple 11-15)"
13,3.24 µM,"CC[C@H](C)[C@@H]1NC(=O)[C@@](C)(NC(=O)[C@H](CCCNC(=N)N)NC(=O)[C@H](CC(C)C)NC(=O)[C@@H](NC(=O)[C@H](CCC(N)=O)NC(=O)[C@H](CC(C)C)NC(=O)[C@H](CO)NC(=O)[C@H](CCCNC(=N)N)NC(=O)[C@H](CCC(=O)O)NC(=O)[C@H](CCCNC(=N)N)NC(=O)[C@H](Cc2c[nH]cn2)NC(C)=O)[C@@H](C)O)CCCC=CCCC[C@@](C)(C(=O)N[C@@H](CC(C)C)C(=O)N[C@@H](Cc2ccc3ccccc3c2)C(N)=O)NC(=O)[C@H](C)NC(=O)[C@H](CCC(N)=O)NC1=O [SEQ ID NO: 28, HRERSLQTLRXIQAXL(2-Nal)] (Ac-HRERSLQTLR[S5]IQA[S5]L[2Nal]-NH2; staple 11-15)"
